Laboratory results published in patent US20220041583A1, “IMMUNOMODULATORS, COMPOSITIONS AND METHODS THERE OF” (BETTA PHARMACEUTICALS CO., LTD, priority 2018, published 2022).

Biological target: T1, PD-1/PD-L1 (Homo sapiens, UniProt Q9NZQ7)
T1 construct: Recombinant human PD-L1 protein (19-238) with a His-tag at the C-terminus; purchased AcroBiosystems PD1-H5229 (PD-L1); PD1-H5257 (PD-1)
Assay: PD-1/PD-L1 homogenous time-resolved fluorescence (HTRF) binding assay
Protocol: Resolved Fluorescence (HTRF) Binding Assay
The assays were conducted in a standard black 384-well polystyrene plate with a final volume of 20 μL. Inhibitors were first serially diluted in DMSO and then added to the plate wells before the addition of other reaction components. The final concentration of DMSO in the assay was 1%. The assays were carried out at 25° C. in the PBS buffer (pH 7.4) with 0.05% Tween-20 and 0.1% BSA. Recombinant human PD-L1 protein (19-238) with a His-tag at the C-terminus was purchased from AcroBiosy stems (PD1-H5229). Recombinant human PD-1 protein (25-167) with Fc tag at the C-terminus was also purchased from AcroBiosystems (PD1-H5257). PD-L1 and PD-1 proteins were diluted in the assay buffer and 10 μL was added to the plate well. Plates were centrifuged and proteins were preincubated with inhibitors for 40 min. The incubation was followed by the addition of 10 μL of HTRF detection buffer supplemented with Europium cryptate-labeled anti-human IgG (PerkinElmer-AD0212) specific for Fc and anti-His antibody conjugated to SureLight®-Allophycocyanin (APC, PerkinElmer-AD0059H). After centrifugation, the plate was incubated at 25° C. for 60 min. Before reading on a PHERAstar FS plate reader (665 nm/620 nm ratio). Final concentrations in the assay were […] PD1, 10 nM PD-L1, 1 nM europium anti-human IgG and 20 nM anti-His-Allophycocyanin. IC50 determination was performed by fitting the curve of percent control activity versus the log of the inhibitor concentration using the GraphPad Prism 5.0 software.

T1 sequence (Q9NZQ7 19-238): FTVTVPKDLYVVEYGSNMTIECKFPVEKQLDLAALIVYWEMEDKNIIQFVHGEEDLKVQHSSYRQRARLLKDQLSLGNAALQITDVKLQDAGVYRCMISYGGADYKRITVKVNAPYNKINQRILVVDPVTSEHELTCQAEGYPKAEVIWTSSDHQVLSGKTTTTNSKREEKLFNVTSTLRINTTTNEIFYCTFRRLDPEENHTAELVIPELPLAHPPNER

Compound | IC50 (Table 6, class symbols) [nM] | IC50 (Table 6, numeric values) [nM]
CC[C@H](NCc1cc2nc(-c3cccc(-c4ccccc4)c3C)oc2cc1OC(F)F)C(=O)O [Example 40, (S)-2-(((6-(difluoromethoxy)-2-(2-methyl-[1,1′-biphenyl]-3-yl)benzo[d]oxazol-5-yl)methyl)amino)butanoic acid] | 0.1 to 10 | –
Cc1c(-c2ccccc2)cccc1-c1nc2cc(CN[C@H](CO)C(=O)O)c(OC(F)F)cc2o1 [Example 42, ((6-(difluoromethoxy)-2-(2-methyl-[1,1′-biphenyl]-3-yl)benzo[d]oxazol-5-yl)methyl)-D-serine] | – | 3.4
N#Cc1c(-c2ccccc2)cccc1-c1nc2cc(CN3CCC[C@H]3C(=O)O)c(OC(F)F)cc2o1 [Example 44, ((2-(2-cyano-[1,1′-biphenyl]-3-yl)-6-(difluoromethoxy)benzo[d]oxazol-5-yl)methyl)-L-proline] | 0.1 to 10 | –
N#Cc1ccccc1-c1cccc(-c2nc3cc(CN4CCC[C@H]4C(=O)O)c(OC(F)F)cc3o2)c1C#N [Example 45, ((2-(2,2′-dicyano-[1,1′-biphenyl]-3-yl)-6-(difluoromethoxy)benzo[d]oxazol-5-yl)methyl)-L-proline] | 10 to 100 | –
Cc1c(-c2ccc3c(c2)OCCO3)cccc1-c1nc2cc(CN3CCC[C@H]3C(=O)O)c(OC(F)F)cc2o1 [Example 47, ((6-(difluoromethoxy)-2-(3-(2,3-dihydrobenzo[b][1,4]dioxin-6-yl)-2-methylphenyl)benzo[d]oxazol-5-yl)methyl)-L-proline] | 0.1 to 10 | –
Cc1c(-c2ccccc2)cccc1-c1nc2cc(CN3CCCC[C@H]3C(=O)O)c(OCC(F)(F)F)cc2o1 [Example 54, (S)-1-((2-(2-methyl-[1,1′-biphenyl]-3-yl)-6-(2,2,2-trifluoroethoxy)benzo[d]oxazol-5-yl)methyl)piperidine-2-carboxylic acid] | 10 to 100 | –
Cc1c(-c2ccccc2)cccc1-c1nc2cc(CN3CCC[C@H]3C(=O)O)c(OS(C)(=O)=O)cc2o1 [Example 64, ((2-(2-methyl-[1,1′-biphenyl]-3-yl)-6-((methylsulfonyl)oxy)benzo[d]oxazol-5-yl)methyl)-L-proline] | 0.1 to 10 | –
Cc1c(-c2ccccc2)cccc1-c1nc2cc(CN3CCC[C@H]3C(=O)O)c(S(C)(=O)=O)cc2o1 [Example 66, ((2-(2-methyl-[1,1′-biphenyl]-3-yl)-6-(methylsulfonyl)benzo[d]oxazol-5-yl)methyl)-L-proline] | 0.1 to 10 | –
Cc1c(-c2ccccc2)cccc1-c1nc2cc(CN3CCCCC3C(=O)O)n3ncnc3c2o1 (stereo not drawn) [Example 69, 1-((8-(2-methyl-[1,1′-biphenyl]-3-yl)oxazolo[5,4-c][1,2,4]triazolo[1,5-a]pyridin-5-yl)methyl)piperidine-2-carboxylic acid] | 100 to 1000 | –
Cc1c(-c2ccccc2)cccc1-c1nc2cc3c(cc2o1)OC[C@@H](C(=O)O)NC3 [Example 70, (S)-2-(2-methyl-[1,1′-biphenyl]-3-yl)-6,7,8,9-tetrahydrooxazolo[5′,4′:4,5]benzo[1,2-f][1,4]oxazepine-7-carboxylic acid] | 100 to 1000 | –
Cc1c(-c2ccccc2)cccc1-c1nc2cc3c(cc2o1)OCCN(CC(=O)O)C3 [Example 71, 2-(2-(2-methyl-[1,1′-biphenyl]-3-yl)-6,7-dihydrooxazolo[5′,4′:4,5]benzo[1,2-f][1,4]oxazepin-8(9H)-yl)acetic acid] | 100 to 1000 | –
Cc1c(-c2ccccc2)cccc1-c1nc2cc3c(cc2o1)OC[C@H](C(=O)O)NC3 [Example 72, (R)-2-(2-methyl-[1,1′-biphenyl]-3-yl)-6,7,8,9-tetrahydrooxazolo[5′,4′:4,5]benzo[1,2-f][1,4]oxazepine-7-carboxylic acid] | 100 to 1000 | –

Other lines, results leading:

IC50 (Table 6, class symbols) [nM] | IC50 (Table 6, numeric values) [nM] | Compound
10 to 100 | – | CC[C@@H](NCc1cc2nc(-c3cccc(-c4ccccc4)c3C)oc2cc1OC(F)F)C(=O)O [Example 41, (R)-2-(((6-(difluoromethoxy)-2-(2-methyl-[1,1′-biphenyl]-3-yl)benzo[d]oxazol-5-yl)methyl)amino)butanoic acid]
– | 1.8 | Cc1c(-c2ccccc2)cccc1-c1nc2cc(CN[C@@H](CO)C(=O)O)c(OC(F)F)cc2o1 [Example 43, ((6-(difluoromethoxy)-2-(2-methyl-[1,1′-biphenyl]-3-yl)benzo[d]oxazol-5-yl)methyl)-L-serine]
0.1 to 10 | – | Cc1c(-c2ccccc2)cccc1-c1nc2cc(CN3CCCC3(C)C(=O)O)c(OC(F)F)cc2o1 (stereo not drawn) [Example 46, 1-((6-(difluoromethoxy)-2-(2-methyl-[1,1′-biphenyl]-3-yl)benzo[d]oxazol-5-yl)methyl)-2-methylpyrrolidine-2-carboxylic acid]
0.1 to 10 | – | Cc1c(-c2ccccc2)cccc1-c1nc2cc(CN3CCC3C(=O)O)c(OC(F)F)cc2o1 (stereo not drawn) [Example 48, 1-((6-(difluoromethoxy)-2-(2-methyl-[1,1′-biphenyl]-3-yl)benzo[d]oxazol-5-yl)methyl)azetidine-2-carboxylic acid]
0.1 to 10 | – | Cc1c(-c2ccccc2)cccc1-c1nc2cc(CN3CCCC3(C)C(=O)O)c(OC(F)F)cc2o1 (stereo not drawn) [Example 50, 1-((6-(difluoromethoxy)-2-(2-methyl-[1,1′-biphenyl]-3-yl)benzo[d]oxazol-5-yl)methyl)-2-methylpyrrolidine-2-carboxylic acid]
10 to 100 | – | Cc1c(-c2nc3cc(CN4CCC[C@H]4C(=O)O)c(OC(F)F)cc3o2)cccc1-c1ccccc1C#N [Example 51, ((2-(2′-cyano-2-methyl-[1,1′-biphenyl]-3-yl)-6-(difluoromethoxy)benzo[d]oxazol-5-yl)methyl)proline]
10 to 100 | – | Cc1c(-c2ccccc2)cccc1-c1nc2cc(CN3COC[C@H]3C(=O)O)c(OC(F)F)cc2o1 [Example 53, (S)-3-((6-(difluoromethoxy)-2-(2-methyl-[1,1′-biphenyl]-3-yl)benzo[d]oxazol-5-yl)methyl)oxazolidine-4-carboxylic acid]
10 to 100 | – | Cc1c(-c2ccccc2)cccc1-c1nc2cc(CN3CCCCC3C(=O)O)c(OCC(F)F)cc2o1 (stereo not drawn) [Example 55, 1-((6-(2,2-difluoroethoxy)-2-(2-methyl-[1,1′-biphenyl]-3-yl)benzo[d]oxazol-5-yl)methyl)piperidine-2-carboxylic acid]
10 to 100 | – | Cc1c(-c2ccccc2)cccc1-c1nc2cc(CN[C@H](C)C(=O)O)c(OCC(F)(F)F)cc2o1 [Example 56, ((2-(2-methyl-[1,1′-biphenyl]-3-yl)-6-(2,2,2-trifluoroethoxy)benzo[d]oxazol-5-yl)methyl)-D-alanine]
10 to 100 | – | N#Cc1c(-c2ccccc2)cccc1-c1nc2cc(CN3CCOC[C@H]3C(=O)O)c(OCC(F)(F)F)cc2o1 [Example 57, (S)-4-((2-(2-cyano-[1,1′-biphenyl]-3-yl)-6-(2,2,2-trifluoroethoxy)benzo[d]oxazol-5-yl)methyl)morpholine-3-carboxylic acid]
10 to 100 | – | Cc1c(-c2ccccc2)cccc1-c1nc2cc(CN3CCOC[C@H]3C(=O)O)c(OCC(F)(F)F)cc2o1 [Example 58, (S)-4-((2-(2-methyl-[1,1′-biphenyl]-3-yl)-6-(2,2,2-trifluoroethoxy)benzo[d]oxazol-5-yl)methyl)morpholine-3-carboxylic acid]
10 to 100 | – | Cc1c(-c2ccccc2)cccc1-c1nc2cc(CN[C@@H](C)C(=O)O)c(OCC(F)(F)F)cc2o1 [Example 59, ((2-(2-methyl-[1,1′-biphenyl]-3-yl)-6-(2,2,2-trifluoroethoxy)benzo[d]oxazol-5-yl)methyl)-L-alanine]
10 to 100 | – | Cc1c(-c2ccccc2)cccc1-c1nc2cc(CN3CCC[C@H]3C(=O)O)c(OCC(F)(F)F)cc2o1 [Example 60, ((2-(2-methyl-[1,1′-biphenyl]-3-yl)-6-(2,2,2-trifluoroethoxy)benzo[d]oxazol-5-yl)methyl)-L-proline]
10 to 100 | – | Cc1c(-c2ccccc2)cccc1-c1nc2cc(CN3CCCC3(C)C(=O)O)c(OCC(F)(F)F)cc2o1 (stereo not drawn) [Example 61, 2-methyl-1-((2-(2-methyl-[1,1′-biphenyl]-3-yl)-6-(2,2,2-trifluoroethoxy)benzo[d]oxazol-5-yl)methyl)pyrrolidine-2-carboxylic acid]
0.1 to 10 | – | Cc1c(-c2ccccc2)cccc1-c1nc2cc(CN3CCC[C@H]3C(=O)O)c(OC(F)(F)F)cc2o1 [Example 63, ((2-(2-methyl-[1,1′-biphenyl]-3-yl)-6-(trifluoromethoxy)benzo[d]oxazol-5-yl)methyl)-L-proline]
– | 5 | Cc1c(-c2ccccc2)cccc1-c1nc2cc(CN3CCC[C@H]3C(=O)O)c([S+](C)[O-])cc2o1 (stereo partly drawn) [Example 65, ((2-(2-methyl-[1,1′-biphenyl]-3-yl)-6-(methylsulfinyl)benzo[d]oxazol-5-yl)methyl)-L-proline]
100 to 1000 | – | Cc1c(-c2ccccc2)cccc1-c1nc2cc3c(cc2o1)OCCN(C)C3 [Example 67, 8-methyl-2-(2-methyl-[1,1′-biphenyl]-3-yl)-6,7,8,9-tetrahydrooxazolo[5′,4′:4,5]benzo[1,2-f][1,4]oxazepine]
100 to 1000 | – | Cc1c(-c2ccccc2)cccc1-c1nc2cc(CN3CCCCC3C(=O)O)c3c(c2o1)C(=O)CO3 (stereo not drawn) [Example 68, 1-((2-(2-methyl-[1,1′-biphenyl]-3-yl)-8-oxo-7,8-dihydrobenzofuro[5,4-d]oxazol-5-yl)methyl)piperidine-2-carboxylic acid]
